Source: patent publication US8586611B2 (priority 2005, dated 2013)
Read-outs that look alike come from different tables or passages of the source.

Key:
Type in all cases: in vivo
Plasmopara viticola = experiment: Test B: grape downy mildew, spray 24 h after inoculation (disease rating, 100 = 100% disease control)
Outline: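 This is a curative spray test, applied 24 h after inoculation. Compounds in 50/50 acetone–water with 250 ppm Trem 014 surfactant were sprayed to run-off on P. viticola-infected seedlings, with 200 ppm equating to 500 g/ha. Plants were kept 5 days in a 20 °C growth chamber, then 24 h humid, and scored 0–100 for disease control relative to controls.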

[1] = test system: Pseudoperonospora cubensis; experiment: Test F: cucumber downy mildew, DMSO/acetone/water test suspension, spray the day before inoculation (disease rating, 100 = 100% disease control)
Description: The test compounds were first dissolved in dimethyl sulfoxide (DMSO) in an amount equal to 4% of the final volume and then suspended at the desired concentration (in ppm) in acetone and purified water (30/70 mix by volume). The resulting test suspensions were then used in test F. Spraying a 250 ppm test suspension on the test plants was the equivalent of a rate of 250 g/ha.
The test suspension was sprayed on cucumber seedlings. The following day the seedlings were inoculated with a spore suspension of Pseudoperonospora cubensis (the causal agent of cucumber downy mildew) and incubated in a saturated atmosphere at 20° C. for 24 h, and then moved to a growth chamber at 20° C. for 6 days, after which disease ratings were made.
Results for Tests A-F are given in Table A. In the table, a rating of 100 indicates 100% disease control and a rating of 0 indicates no disease control (relative to the controls). A dash (-) indicates no test results.

Phytophthora infestans [2] = experiment: whole plant or invertebrate; settings: for Test D disease rating (100 = 100% disease control, 0 = no disease control): tomato late blight
Phytophthora infestans [3] = experiment: whole plant or invertebrate; settings: for Test C disease rating (100 = 100% disease control, 0 = no disease control): tomato late blight
[4] = test system: Erysiphe graminis f. sp. tritici; experiment: Test E: wheat powdery mildew, spray the day before inoculation (disease rating, 100 = 100% disease control)
Outline: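 Protective test: spores of E. graminis f. sp. tritici dusted on wheat seedlings one day after run-off spraying of test suspension (acetone/water with 250 ppm surfactant; 200 ppm = 500 g/ha). Ratings after 7 days in growth chamber at 20° C, 100 = full control, 0 = none, relative to controls.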

[5] = spray 24 h after inoculation, compounds without asterisk (not 40 or 10 ppm)
[6] = DMSO/acetone/water suspension, spray the day before inoculation, compounds without asterisk
[7] = spray 17 h after inoculation, compounds without asterisk (not 40 or 10 ppm)
[8] = spray the day before inoculation, compounds without asterisk (not 40 or 10 ppm)
[9] = sprayed 24 h after inoculation, unmarked compounds (no asterisk, not 40 or 10 ppm)
[10] = sprayed 17 h after inoculation, unmarked compounds (no asterisk, not 40 or 10 ppm)
[11] = sprayed the day before inoculation, 7 days at 20° C., unmarked compounds (no asterisk, not 40 or 10 ppm)
[12] = sprayed the day before inoculation, unmarked compounds (no asterisk, not 40 or 10 ppm)

SMILES | Test B disease rating (100 = 100% disease control, 0 = no disease control) (Plasmopara viticola; [5]) | Test F disease rating (100 = 100% disease control, 0 = no disease control) [1, 6] | Test D disease rating (100 = 100% disease control, 0 = no disease control) (Phytophthora infestans [2]; [7]) | Test C disease rating (100 = 100% disease control, 0 = no disease control) (Phytophthora infestans [3]; [8]) | Test E disease rating (100 = 100% disease control, 0 = no disease control) [4, 8] | Test B disease rating (100 = 100% disease control, 0 = no disease control) (Plasmopara viticola; [9]) | Test D disease rating (100 = 100% disease control, 0 = no disease control) (Phytophthora infestans [2]; [10]) | Test E disease rating (100 = 100% disease control, 0 = no disease control) [4, 11] | also measured
Cc1cc(C(F)(F)F)nn1CC(=O)N1CCC(c2nc(C(=O)N(C)C3CCCc4ccccc43)cs2)CC1 (stereo not shown) [Compound 188, N-methyl-2-[1-[[5-methyl-3-(trifluoromethyl)-1H-pyrazol-1-yl]acetyl]-4-piperidinyl]-N-(1,2,3,4-tetrahydro-1-naphthalenyl)-4-thiazolecarboxamide] | – | – | – | – | – | – | – | – | pest or weed control at 10 ppm (Plasmopara viticola; Plasmopara viticola, 144 h, spray 24 h after inoculation, tested at 10 ppm, read-out: Test B disease rating (100 = 100% disease control, 0 = no disease control)): 99%; pest or weed control at 10 ppm ([1]; Pseudoperonospora cubensis, topical, 168 h, DMSO/acetone/water suspension, spray the day before inoculation, compound marked as tested at 10 ppm, read-out: Test F disease rating (100 = 100% disease control, 0 = no disease control)): 99%; pest or weed control at 10 ppm (Phytophthora infestans [2]; Phytophthora infestans, in Solanum lycopersicum, topical, 96 h, read-out: Test D disease rating (100 = 100% disease control, 0 = no disease control)): 99%; pest or weed control at 10 ppm (Phytophthora infestans [3]; Phytophthora infestans, in Solanum lycopersicum, 144 h, read-out: Test C disease rating (100 = 100% disease control, 0 = no disease control)): 100%; pest or weed control at 10 ppm ([4]; Blumeria graminis, topical, 168 h, spray the day before inoculation, tested at 10 ppm, read-out: Test E disease rating (100 = 100% disease control, 0 = no disease control)): 84%
Cc1ccc(C)c(CC(=O)N2CCN(c3nc(C(=O)N(C)[C@H](C)c4ccccc4)co3)CC2)c1 [compound 50] | 55% | 100% | 99% | 100% | 0% | – | – | – | –
C[C@H](c1ccccc1)N(C)C(=O)c1coc(N2CCN(C(=O)Cc3cc(C(F)(F)F)ccc3Cl)CC2)n1 [compound 51] | 20% | 100% | 96% | 100% | 0% | – | – | – | –
Cc1cccc(CC(=O)N2CCN(c3nc(C(=O)N(C)[C@H](C)c4ccccc4)co3)CC2)c1 [compound 52] | 20% | 96% | 74% | 100% | 0% | – | – | – | –
C[C@H](c1ccccc1)N(C)C(=O)c1coc(N2CCN(C(=O)Cc3cccc(Br)c3)CC2)n1 [compound 54] | 11% | 50% | 69% | 100% | 0% | – | – | – | –
C[C@H](c1ccccc1)N(C)C(=O)c1coc(N2CCN(C(=O)Cc3cccc(C(F)(F)F)c3)CC2)n1 [compound 55] | 7% | 47% | 92% | 100% | 0% | – | – | – | –
Cc1ccc(C)c(CC(=O)N2CCC(c3nc(C(=O)N(C)[C@H](C)c4ccccc4F)cs3)CC2)c1 [compound 57] | 100% | 99% | 94% | 100% | 50% | – | – | – | –
COc1ccc([C@@H](C)N(C)C(=O)c2csc(C3CCN(C(=O)Cc4cc(C)ccc4C)CC3)n2)cc1 [compound 59] | 84% | 93% | 63% | 98% | 21% | – | – | – | –
Cc1ccc(C)c(CC(=O)N2CCC(c3nc(C(=O)N(C)[C@H](C)c4ccc(Cl)cc4)cs3)CC2)c1 [compound 60] | 95% | 47% | 42% | 93% | 67% | – | – | – | –
Cc1ccc([C@@H](C)N(C)C(=O)c2csc(C3CCN(C(=O)Cc4cc(C)ccc4C)CC3)n2)cc1 [compound 62] | 92% | 43% | 24% | 92% | 29% | – | – | – | –
Cc1ccc(C)c(CC(=O)N2CCC(c3nc(C(=O)N(C)[C@H](C)c4ccc(Br)cc4)cs3)CC2)c1 [compound 63] | 100% | 99% | 93% | 100% | 0% | – | – | – | –
Cc1ccc(C)c(CC(=O)N2CCC(c3nc(C(=O)N(C)[C@H](C)c4ccc(F)cc4)cs3)CC2)c1 [compound 64] | 100% | 93% | 95% | 100% | 92% | – | – | – | –
Cc1cc(C)n(CC(=O)N2CCC(c3nc(C(=O)N(C)[C@H](C)c4ccccc4)cs3)CC2)n1 [compound 65] | 92% | 100% | 100% | 100% | 0% | – | – | – | –
Cc1ccc(C)c(CC(=O)N2CCC(c3nc(C(=O)N(C)[C@H](C)c4cccc(C(F)(F)F)c4)cs3)CC2)c1 [compound 67] | 10% | 99% | 0% | 68% | 0% | – | – | – | –
COc1ccc(CCNC(=O)c2csc(C3CCN(C(=O)Cc4cc(C)ccc4C)CC3)n2)cc1OC [compound 288] | – | – | – | – | – | 73 | 76 | 0 | Test F disease rating (100 = 100% disease control, 0 = no disease control) ([1]; DMSO/acetone/water test suspension, sprayed the day before inoculation, unmarked compounds (no asterisk)): 95
Cc1cc(C(F)(F)F)nn1CC(=O)N1CCC(c2nc(C(=O)N3CC=C(c4ccccc4)CC3)cs2)CC1 [compound 311] | – | – | – | – | – | 31 | 0 | 28 | Test C disease rating (100 = 100% disease control, 0 = no disease control) (Phytophthora infestans [3]; [12]): 83
Cc1cc(C(F)(F)F)nn1CC(=O)N1CCC(c2nc(C(=O)N3CCCC(C)C3)cs2)CC1 (stereo not shown) [compound 312] | – | – | – | – | – | 91 | 80 | 0 | Test C disease rating (100 = 100% disease control, 0 = no disease control) (Phytophthora infestans [3]; [12]): 100
Cc1cc(C(F)(F)F)nn1CC(=O)N1CCC(c2nc(C(=O)N3CCCC(C)(C)C3)cs2)CC1 [compound 313] | – | – | – | – | – | 98 | 92 | 0 | Test C disease rating (100 = 100% disease control, 0 = no disease control) (Phytophthora infestans [3]; [12]): 99
Cc1cc(C(F)(F)F)nn1CC(=O)N1CCC(c2nc(C(=O)NCCc3ccccc3)cs2)CC1 [compound 314] | – | – | – | – | – | 98 | 99 | 0 | Test C disease rating (100 = 100% disease control, 0 = no disease control) (Phytophthora infestans [3]; [12]): 100
Cc1cc(C(F)(F)F)nn1CC(=O)N1C2CCC1CC(c1nc(C(=O)N(C)[C@@H]3CCCc4ccccc43)cs1)C2 (stereo partly shown) [compound 316] | – | – | – | – | – | 97 | 97 | 0 | Test C disease rating (100 = 100% disease control, 0 = no disease control) (Phytophthora infestans [3]; [12]): 100
